Measured values taken from PMC11659602, “Discovering covalent cyclic peptide inhibitors of peptidyl arginine deiminase 4 (PADI4) using mRNA-display with a genetically encoded electrophilic warhead” (Communications Chemistry, 2024).
Values joined by “and” are separate entries in the source; they are usually repeats but may differ in a detail not shown here. Equal entries are not always repeated. Where two headings read alike, the source gives them in different places. Where a SMILES comes first, the peptide text is derived from it. Bridges are numbered along the chain shown (N, C = ends). [ ]: non-standard residue; d: D form. Orn(fluoroacetimidoyl) = N=C(CF)NCCC[C@H](N)C(=O)O

Tests used:
PADI4 [1] = target: T1, PADI4 (Homo sapiens, UniProt Q9UM07); assay: Incubation time-dependent COLDER assay IC50(t), Krippendorff fit; type: biochemical; details: for IC50: replicates, read-out: apparent IC50; for Ki / kinact: Krippendorff fit of IC50 vs time
T1 construct: His6; made in house
T1 sequence (Q9UM07 whole entry): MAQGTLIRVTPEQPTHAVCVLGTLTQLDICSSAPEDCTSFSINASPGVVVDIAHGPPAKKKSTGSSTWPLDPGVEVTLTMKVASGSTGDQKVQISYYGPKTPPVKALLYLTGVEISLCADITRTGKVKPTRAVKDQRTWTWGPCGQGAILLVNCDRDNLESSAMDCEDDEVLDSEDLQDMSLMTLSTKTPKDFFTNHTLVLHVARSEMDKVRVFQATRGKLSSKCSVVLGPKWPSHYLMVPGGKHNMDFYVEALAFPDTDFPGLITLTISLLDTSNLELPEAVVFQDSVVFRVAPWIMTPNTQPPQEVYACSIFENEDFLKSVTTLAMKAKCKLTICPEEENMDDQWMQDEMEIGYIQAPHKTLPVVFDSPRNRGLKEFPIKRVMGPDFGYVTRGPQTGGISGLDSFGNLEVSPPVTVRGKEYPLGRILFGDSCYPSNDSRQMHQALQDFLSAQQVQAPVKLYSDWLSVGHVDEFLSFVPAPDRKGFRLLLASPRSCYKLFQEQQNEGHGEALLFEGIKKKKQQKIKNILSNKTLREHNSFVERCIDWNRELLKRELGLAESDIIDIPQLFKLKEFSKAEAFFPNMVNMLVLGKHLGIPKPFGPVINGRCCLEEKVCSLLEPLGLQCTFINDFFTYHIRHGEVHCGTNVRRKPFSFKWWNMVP
Procedure: To determine KI and kinact of covalent peptide inhibitors, COLDER assays were used[52]. Peptide dilutions were prepared using 5-fold dilutions from 500 µM and 300 µM to 0.8 µM and 2.4 µM, respectively, at 1% DMSO in COLDER buffer (50 mM HEPES, 150 mM NaCl and 2 mM DTT, pH 7.5). The 9 peptide dilutions were added to a 96-well plate, alongside a 1% DMSO control. An equal volume of 10 mM BAEE was added to each well and the solution was homogenised by pipette mixing. This was mixed with 50 nM His-PADI4, 0.6 mg/mL BSA and 10 mM CaCl2, in COLDER buffer, to bring the final volume to 300 µL in each well. Alternatively, His-PAD1 (100 nM) /His-PADI2 (100 nM) /His-PADI3 (250 nM) were used. For assays with PADI1 and PADI3, 10 mM N^α-benzoyl-L-arginine methyl […] (BAME) was used as the substrate instead of BAEE[48],[58],[59]. At 15-minute intervals, for 5 timepoints, 50 µL of solution was taken from each well and quenched with 10 µL EDTA (300 mM). 200 µL of COLDER solution containing 20 mM diacetyl monoxime/2,3-butanedione monoxime (Merck), 0.5 mM thiosemicarbazide (Acros Organics), 2.25 M H3PO4, 4.5 M H2SO4 and 1.5 mM NH4Fe(SO4)2.12H2O was added to each well. Samples were incubated for 20 min at 95 °C before measuring absorbance at 540 nm on a CLARIOstar Plus (BMG LABTECH). IC50 values for each time point were determined using non-linear regression with GraphPad Prism. Incubation time–dependent potency IC50(t) against incubation time was fitted to the Krippendorff equation (below) to determine KI and kinact using a Python script[53],[59]. […] IC50t=KI1+S/KM⋅2−2e^−ηIC50⋅kinact⋅t/ηIC50⋅kinact⋅t−1 WhereηIC50=IC50t/KI1+S/KM+IC50t

PADI4 [2] = target: T1, PADI4; assay: Surface plasmon resonance (SPR), single cycle kinetics; type: binding; details: for Ki: k-1/k+1
Procedure: S8. Surface plasmon resonance (SPR)
Using a Biacore S200 (GE Healthcare), biotinylated His-PADI4 (80 nM) was immobilised on a CAP chip (GE Healthcare) to a response unit of approx. 3000. At 25 °C, single cycle kinetics mode was used with 5 samples of a 3-fold dilution series of peptides PADI4_3_H4(2), cP4_2, […]
mM HEPES, 150 mM NaCl, 10 mM CaCl2, 0.05% Tween-20, 0.1% DMSO (pH 7.5). After each cycle, regeneration of the chip was carried out as per the manufacturer’s protocol. Data were analysed with the Biacore S200 Evaluation Software, each in triplicate. Warhead-containing peptides were analysed using the two-state reaction model, with the rate constant for the reverse second step (k-2) set to zero. The equilibrium constant of the reversible binding step, Ki, was calculated as the ratio of k-1/k+1 and the rate constant of the irreversible chemical step, kinact, as k+2. The Arg4, Cit4 and Me4 peptides were fitted using a 1:1 binding model. […]

PADI4 [3] = target: T1, PADI4; assay: COLDER inhibition assay, BAEE substrate, with or without 1 h preincubation; type: biochemical; details: for IC50: COLDER; for remaining activity at 0.003 µM: peptide 0.003 µM; for remaining activity at 0.01 µM: peptide 0.01 µM; for remaining activity at 0.03 µM: peptide 0.03 µM; for remaining activity at 0.1 µM: peptide 0.1 µM; for remaining activity at 0.3 µM: peptide 0.3 µM; for remaining activity at 1 µM: peptide 1 µM
Procedure: (§1) PADI4 citrullination activity was analysed using the COLDER assay in 96-well plates. Peptide dilutions were prepared from a 500 µM stock, to give a 10 times concentrated dilution series (500 µM, 300 µM, 100 µM, 30 µM, 10 µM, 3 µM, 1 µM, 0.3 µM, 0.1 µM and 0.03 µM) in COLDER buffer (50 mM HEPES, 150 mM NaCl and 2 mM DTT, pH 7.5) containing 1% DMSO. In triplicate, each was diluted 10-fold further when mixed with 50 nM His-PADI4, 0.6 mg/mL BSA and 10 mM CaCl2, in COLDER buffer. With or without one hour of incubation, 10 mM N^α-Benzoyl-L-arginine ethyl ester hydrochloride (BAEE, Merck) was added to initiate the reaction (50 µL final volume). After 30 min at rt, EDTA (50 mM final concentration) was used to quench the reaction and 200 µL of COLDER solution containing 20 mM Diacetyl monoxime/2,3-butanedione monoxime (Merck), 0.5 mM Thiosemicarbazide (Acros Organics), 2.25 M H3PO4, 4.5 M H2SO4 and 1.5 mM NH4Fe(SO4)2.12H2O was added to each well. Samples were incubated for 20 min at 95 °C before measuring absorbance at 540 nm on a CLARIOstar Plus (BMG LABTECH). Data analysis was performed with GraphPad Prism. Data are presented as the average ± standard error of the mean from at least two independent replicates.

PADIs 1-4 = assay: COLDER citrullination activity of purified PADIs 1-4 and PADI4 C645A (no inhibitor); type: biochemical, human; design: key to Citrullination activity of PADI4 WT / C645A (Figure S4c): absorbance at 540 nm (colorimetric citrulline readout); details: for Citrullination activity of PADI4 WT / C645A (Figure S4c): no inhibitor
Procedure: as §1

[4] = each replicate, read-out: k2 / kinact
[5] = two-state reaction model, k+2, read-out: SPR kinact (converted)
[6] = 1 h preincubation of peptide and PADI4, 10 mM CaCl2, read-out: IC50 Values 1 h preincubation
[7] = no preincubation of peptide and PADI4, 10 mM CaCl2, read-out: IC50 Values 0 h preincubation
[8] = T=0, values starred, read-out: PADI4 activity normalised to 0.1% DMSO
[9] = T=1, read-out: PADI4 activity normalised to 0.1% DMSO
[10] = T=0, read-out: PADI4 activity normalised to 0.1% DMSO

| Molecule | kinact/KI (PADI4 [1]) | IC50 (PADI4 [1]; 15 mins) | IC50 (PADI4 [1]; 30 mins) | IC50 (PADI4 [1]; 45 mins) | IC50 (PADI4 [1]; 60 mins) | IC50 (PADI4 [1]; 75 mins) | Ki (PADI4 [1]) | kinact (PADI4 [1]) | kinact/KI (PADI4 [2]) | kinact (PADI4 [2]; [4]) | kinact (PADI4 [2]; [5]) | Ki (PADI4 [2]; two-state reaction model) | IC50 (PADI4 [3]; [6]) | IC50 (PADI4 [3]; [7]) | remaining activity at 0.003 µM (PADI4 [3]; [8]) | remaining activity at 0.003 µM (PADI4 [3]; [9]) | remaining activity at 0.01 µM (PADI4 [3]; [8]) | remaining activity at 0.01 µM (PADI4 [3]; [9]) | remaining activity at 0.03 µM (PADI4 [3]; [10]) | remaining activity at 0.1 µM (PADI4 [3]; [10]) | other results |
| --- | --- | --- | --- | --- | --- | --- | --- | --- | --- | --- | --- | --- | --- | --- | --- | --- | --- | --- | --- | --- | --- |
| N=C(N)NCCC[C@@H]1NC(=O)[C@H](CCCCN)NC(=O)[C@H](CC(N)=O)NC(=O)[C@H](Cc2ccccc2)NC(=O)[C@H](CC(=O)O)NC(=O)[C@H](Cc2c[nH]c3ccccc23)NC(=O)[C@H](CC(N)=O)NC(=O)[C@H](CCCNC(=N)CF)NC(=O)[C@H](Cc2ccc(O)cc2)NC(=O)[C@H](Cc2c[nH]c3ccccc23)NC(=O)[C@@H](Cc2ccc(O)cc2)NC(=O)CSC[C@@H](C(=O)NCC(N)=O)NC1=O [cP4_10, yWY(2)NWDFNKRCG] ({CH2CO}-[dY]WY[Orn(fluoroacetimidoyl)]NWDFNKRCG-NH2; thioether N-12) | 1450 M⁻¹ s⁻¹ | 7.24 µM and 6.94 µM and 5.53 µM | 3.82 µM and 3.29 µM and 3.6 µM | 2.72 µM and 2.38 µM and 2.64 µM | 2.15 µM and 2.09 µM and 2.33 µM | 1.96 µM and 1.81 µM and 2.18 µM | 1.5 ± 0.3 µM | 0.00217 s⁻¹ | 33400 M⁻¹ s⁻¹ | 0.0041 s⁻¹ | 0.00383 s⁻¹ | 0.12 ± 0.1 µM | 0.093 ± 0.002 µM | 3.1 ± 0.01 µM | 93.1% | 98.1% | 92% | 81.1% | 91.3% | 90.6% | k2 / kinact (PADI4 [2]; each replicate): 0.0034 s⁻¹; remaining activity at 0.03 µM (PADI4 [3]; [9]): 82.2%; remaining activity at 0.3 µM (PADI4 [3]; [10]): 91.5%; remaining activity at 1 µM (PADI4 [3]; [10]): 75.7%; remaining activity at 3 µM (PADI4 [3]; peptide 3 µM, T=0, read-out: PADI4 activity normalised to 0.1% DMSO): 48.4%; remaining activity at 10 µM (PADI4 [3]; peptide 10 µM, T=0, read-out: PADI4 activity normalised to 0.1% DMSO): 19.7% |
| CC[C@H](C)[C@H](NC(=O)[C@H](Cc1c[nH]c2ccccc12)NC(=O)[C@H](CCC(=O)O)NC(=O)[C@@H]1CSCC(=O)N[C@H](Cc2ccc(O)cc2)C(=O)N[C@@H](C(C)C)C(=O)N[C@@H](Cc2ccc(O)cc2)C(=O)N[C@@H](CCCNC(=N)CF)C(=O)N[C@@H](CC(=O)O)C(=O)N1)C(=O)N[C@@H](CC(N)=O)C(=O)N[C@@H](CCCNC(=N)N)C(=O)N[C@@H](C)C(=O)NCC(N)=O [cP4_165, yVY(2)DCEWINRAG] ({CH2CO}-[dY]VY[Orn(fluoroacetimidoyl)]DCEWINRAG-NH2; thioether N-6) | 283 M⁻¹ s⁻¹ | 51.7 µM and 33.8 µM and 43.9 µM | 22.5 µM and 16.4 µM and 14.6 µM | 13.7 µM (2×) and 11.2 µM | 11.9 µM and 10 µM and 8.76 µM | 9.43 µM and 9.54 µM and 8.45 µM | 8.9 ± 1.1 µM | 0.00267 s⁻¹ | 1780 M⁻¹ s⁻¹ | 0.0013 s⁻¹ | 0.0011 s⁻¹ | 0.62 ± 0.06 µM | 0.17 ± 0.01 µM | 11.8 ± 4.9 µM | 97.2% | 95% | 94.1% | 89% | 97.8% | 99.6% | remaining activity at 0.3 µM (PADI4 [3]; [10]): 99.2%; remaining activity at 0.3 µM (PADI4 [3]; [9]): 24.1%; remaining activity at 1 µM (PADI4 [3]; [10]): 97% |
| C645A |  |  |  |  |  |  |  |  |  |  |  |  |  |  |  |  |  |  |  |  | Citrullination activity of PADI4 WT / C645A (Figure S4c) (PADIs 1-4; +EDTA): 0.268 and 0.278 and 0.279 and 0.186 and 0.254 and 0.214; Citrullination activity of PADI4 WT / C645A (Figure S4c) (PADIs 1-4; -EDTA): 0.211 and 0.22 and 0.222 and 0.281 and 0.285 and 0.262 |
| PADI2 |  |  |  |  |  |  |  |  |  |  |  |  |  |  |  |  |  |  |  |  | Absorbance at 540 nm (PADIs 1-4; purified PADI enzyme, no inhibitor (Figure S10)): 0.974 and 1.004 and 1.007 and 0.7767 and 0.7637 and 0.7657 |
